Assay: Pharmacokinetics test in beagles after oral administration of Compound A (plasma, HPLC-FL method)
Assay type: in vivo, beagle
Settings: for AUC(0-inf) / Cmax / half-life: plasma, po, 0.3 mg/kg
Description: In this example, after oral administration of Compound A, a pharmacokinetics test was carried out, in accordance with the following procedure. In the test, a time course of changes in concentrations of the unreacted compound and metabolites was measured.
Compound A was suspended in 0.5% methyl cellulose solution, and the suspension was orally administered to 10 male beagles (0.3 mg/kg). Blood was collected from each subject after 0.25, 0.5, 1.0, 2.0, 4.0, and 8.0 hours from the administration. Plasma was extracted by liquid-liquid extraction, and then, a time course of changes in concentrations of the unreacted compound and metabolites in plasma was measured according to a simultaneous measurement method (hereinafter referred to as HPLC-FL method) using HPLC and a fluorescence detector.
Conditions in the HPLC-FL method measuring Compound A and metabolites simultaneously are shown in Table 9, and concentration gradients of mobile phases are shown in Table 10.
The beagles for the pharmacokinetics test used in this example were previously selected by carrying out a phenotype analysis. In the pharmacokinetics test, 5 dogs (type I) in which the major metabolite was MM-2, and 5 dogs (type II) in which the major metabolites were MM-1 and MM-5, were used. The time course of changes in concentrations of Compound A and metabolites thereof in plasma are shown in Table 1 (type I) and Table 2 (type II)
As pharmacokinetic parameters, time of maximum observed concentration (Tmax), concentration corresponding to Tmax (Cmax), area under the plasma concentration-time curve from the time of dosing extrapolated to infinity (AUCinf), and terminal half-life (T1/2) were calculated.

[1] = male, beagle, dog, type I (EM) beagles, n = 5, plasma after oral Compound A 0.3 mg/kg
[2] = male, beagle, dog, type II (PM) beagles, n = 5, plasma after oral Compound A 0.3 mg/kg
[3] = unreacted compound in plasma, oral 0.3 mg/kg, type II (PM) vs type I (EM) beagles

AUC(0-inf) [1]: 2.8 ± 1.6 ng·h/mL
Cmax [1]: 3.2 ± 1.5 ng/mL
half-life [1]: 36 ± 12 min
AUC(0-inf) [2]: 27.2 ± 20.2 ng·h/mL
Cmax [2]: 24 ± 14.8 ng/mL
half-life [2]: 48 ± 24 min
Tmax [1]: 18 min
AUCinf of type II relative to type I [3]: 9.7 times
Cmax of type II relative to type I [3]: 7.5 times
SMILES: CCn1c(=O)nc(C2CCCCC2)c2ccc(C)nc21 [Compound A, 4-cyclohexyl-1-ethyl-7-methylpyrido[2,3-d]pyrimidin-2(1H)-one]

Reference: patent US7399587B2, “Canine CYP1A2 genetic polymorphism” (Astellas Pharma Inc., priority 2003, dated 2008)
